Experimental data taken from paper PMC9011347, “Small-Molecule Inhibitors Targeting Lipolysis in Human Adipocytes” (Journal of the American Chemical Society, 2022).

Experiments:
Assay in all cases: TAG hydrolase assay, humanized mouse ATGL variants
Type in all cases: biochemical
mouse ATGL T93I = molecular target: T1, mouse ATGL T93I (Mus musculus, UniProt Q8BJ56, T93I); settings: variant T93I, NG-497 (10 μM) or Atglistatin (10 μM)
T1 construct: host or cells: Expi293 cells, cell lysate
Procedure: (§1) Figure 5 Analysis of chimeric proteins comprising human and mouse ATGL. (a) Schematic view of the minimal active domain of wild-type and chimeric ATGL variants (c1–c9). Nonidentical aa are indicated in blue and red for mouse and human ATGL, respectively. ATGL variants were expressed in Expi293 cells and TAG hydrolase activity was determined in cell lysates in the presence or absence of NG-497 (10 μM) and Atglistatin (10 μM), respectively. Inhibition of ATGL variants by respective inhibitors (tick mark) and lack of inhibition (cross) is indicated at the right edge. The expression of all ATGL variants was confirmed by Western blotting analysis (Figure S6). (b) Dose-dependent inhibition of human ATGL (aa 1–288) and c1 (human aa 1–158 and mouse aa 159–288) by NG-497. (c) Dose-dependent inhibition of mouse ATGL (aa 1–288) and c2 (mouse aa 1–158 and human aa 159–288) by Ai. IC50 values are shown in the insets. Data are presented as relative inhibition of respective DMSO controls and are indicated as mean ± SD. (d) 3D homology model of the minimal active domain of mouse ATGL (M1–L254) depicted as a cartoon. Residues 1–178 are in blue, and residues 179–254 are in gray. S47 and D166 comprising the active site are represented as green sticks. T101, C106, R109, N111, and S133 are colored in orange, A60, N68, I69, T93, C97, and T146 are colored in magenta. TEXT PRINTED IN THE PICTURE: (b) NG-497: IC50 [μM] (human): 1.3±0.1; IC50 [μM] (c1): 1.3±0.1 | (b) Ai: IC50 [μM] (human): n.det.; IC50 [μM] (c1): n.det. | (c) NG-497: IC50 [μM] (mouse): n.det.; IC50 [μM] (c2): n.det. | (c) Ai: IC50 [μM] (mouse): 2.5±0.3; IC50 [μM] (c2): 2.4±0.1 […]
(§2) The region between aa 60 and 146 of human and mouse ATGL comprises 12 nonidentical aa. We generated 3D homology models for the minimal active domain of mouse ATGL to obtain more detailed insight into the topology of the relevant region (Figure 5d). Based on this model, aa T101, C106, R109, N111, and S133 locate at peripheral (loop) regions (indicated in orange, Figure 5d). […] For all other nonidentical aa (indicated in magenta, Figure 5d), we generated variants with single aa substitutions. The humanized variants A60V, N68K, T93I, and C97F were inactivated by Ai but not NG-497 (Figure 5a).
(§3) Experimental details, materials, and methods
(§4) Expression of recombinant ATGL constructs and preparation of cell lysates. Expi293 cells were cultivated in Expi293 Expression Medium (GIBCO, Thermo Fisher Scientific, Waltham, USA) at standard conditions (37°C, 5% CO2, 95% humidified atmosphere, 125 rpm). DNA constructs containing ATGL from different species and chimeric ATGL variants in pcDNA3.1(+)myc-His C Vector were obtained from BioCat GmbH (Heidelberg, Germany). Cells were transfected with ExpiFectamine293 Transfection Kit (GIBCO) in Opti-Mem reduced serum medium (GIBCO) according to the manufacturer’s instructions. After 48 h, cells were harvested by centrifugation and washed three times with PBS. Cells were disrupted in buffer A (0.25 M sucrose, 1 mM EDTA, 1 mM dithiothreitol, 20µg/ml leupeptin, 2 µg/ml antipain, 1 µg/ml pepstatin, pH 7.0) by sonication (Virsonic 475, Virtis, Gardiner, USA). Nuclei and debris were removed by centrifugation at 1,000 g and 4°C for 10 min. Protein concentrations were determined using Bio-Rad protein assay (Bio-Rad 785, Bio-Rad Laboratories, Munich, Germany) using BSA as standard.
(§5) Expression and purification of mouse CGI-58. CGI-58 was expressed and purified as described 1. In brief, the coding sequence of mouse Cgi-58 was cloned into pHis-Sumo and co-transformed with the plasmid pTf16 expressing the chaperone Tig into E. coli BL21(DE3). Cells were cultured overnight at 37°C and 180 rpm in the presence of 40 µg/ml kanamycin and 34 µg/ml chloramphenicol. Thereafter, cells were transferred into fresh LB medium, grown until OD600 of 0.6, and expression was induced by the addition of 0.5 mM IPTG. After overnight incubation at 30°C, cells were harvested at 4,500 x g and 4°C for 20 min, […]

mouse ATGL N68K = molecular target: T2, mouse ATGL N68K (Mus musculus, UniProt Q8BJ56, N68K); settings: variant N68K, NG-497 (10 μM) or Atglistatin (10 μM)
T2 construct: host or cells: Expi293 cells, cell lysate
T2 sequence (Q8BJ56 whole entry N68K): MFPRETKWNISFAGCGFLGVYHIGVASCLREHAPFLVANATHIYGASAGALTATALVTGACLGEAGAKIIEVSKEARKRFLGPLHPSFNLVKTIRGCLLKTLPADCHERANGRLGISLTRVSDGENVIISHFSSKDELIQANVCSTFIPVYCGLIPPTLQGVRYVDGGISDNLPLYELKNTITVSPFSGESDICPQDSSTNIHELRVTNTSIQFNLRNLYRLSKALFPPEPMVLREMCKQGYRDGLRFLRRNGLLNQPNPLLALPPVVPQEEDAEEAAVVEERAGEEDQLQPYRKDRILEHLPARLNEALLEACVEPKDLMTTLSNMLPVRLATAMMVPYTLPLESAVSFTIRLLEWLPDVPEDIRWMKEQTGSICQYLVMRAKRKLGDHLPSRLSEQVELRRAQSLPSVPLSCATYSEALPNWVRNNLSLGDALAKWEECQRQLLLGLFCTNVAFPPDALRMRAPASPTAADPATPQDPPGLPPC
Procedure: as §1, §2, §3, §4, §5

mouse ATGL A60V = molecular target: T3, mouse ATGL A60V (Mus musculus, UniProt Q8BJ56, A60V); settings: variant A60V, NG-497 (10 μM) or Atglistatin (10 μM)
T3 construct: host or cells: Expi293 cells, cell lysate
T3 sequence (Q8BJ56 whole entry A60V): as the sequence (Q8BJ56 whole entry N68K) above, with A60V, K68N counted along it
Procedure: as §1, §2, §3, §4, §5

mouse ATGL C97F = molecular target: T4, mouse ATGL C97F (Mus musculus, UniProt Q8BJ56, C97F); settings: variant C97F, NG-497 (10 μM) or Atglistatin (10 μM)
T4 construct: host or cells: Expi293 cells, cell lysate
T4 sequence (Q8BJ56 whole entry C97F): as the sequence (Q8BJ56 whole entry N68K) above, with K68N, C97F counted along it
Procedure: as §1, §2, §3, §4, §5

Measured: inhibition of TAG hydrolase activity

T1 sequence (Q8BJ56 whole entry T93I): as the sequence (Q8BJ56 whole entry N68K) above, with K68N, T93I counted along it

CN(C)C(=O)Nc1cccc(-c2ccc(N(C)C)cc2)c1 [Atglistatin, reference compound]
inactivated: all assays above
